Patent US9751919B2, “Antimicrobial compositions comprising a hyaluronic acid binding peptide and a β-lactam antibiotic” (priority 2012, dated 2017)
Values joined by “and” are separate entries in the source; they are usually repeats but may differ in a detail not shown here. Identical values can stand only once. Like-named read-outs stand apart in the source and are kept apart here. Marks after values point to notes of the source that are not given here.

Columns and labels:
E. coli = test: MIC (CLSI broth dilution), agent alone; type: cell-based, Escherichia coli; conditions: for MIC: agent alone
Description: VISA (strains 92, 95 and 96), VRSA (strains 105 and 106) and E. coli (strain 69717) isolates were also tested. One MSSA was used as a control. All MICs were assessed using CLSI guidelines. Also assessed was the activity of cefazolin, ceftriazone, meropenem, and a piperacillin/tazobactam combination antibiotic. Minimum inhibitory concentration (MIC) is the lowest concentration of an antimicrobial that will inhibit the visible growth of a microorganism after incubation.
Antimicrobial Susceptibility Testing: A custom designed panel of antimicrobials was created. The panel included: PEP35, penicillin, piperacillin/tazobactam, cefazolin, ceftriaxone, meropenem, clarithromycin, clindamycin, gentamicin, amikacin, vancomycin, ciprofloxacin, levofloxacin, moxifloxacin, linezolid, trimethoprim/sulfamethoxazole and doxycycline. These agents were obtained as laboratory grade powders from their respective manufacturers. Stock solutions were prepared and dilutions made as described by the Clinical Laboratory Standards Institute (2005 CLSI). Following two subcultures from frozen stock the MICs of the antimicrobial agents for the isolates were determined by the CLSI 2005 approved broth macrodilution method. Briefly, test tubes containing doubling antibiotic dilutions (2 ml per tube) of cation adjusted Mueller-Hinton broth (eg. for Enterobacteriaceae) with or without lysed horse blood (2-5% V/V) [eg. for S. pneumoniae] were inoculated to achieve a final concentration of approximately 5×10^5 CFU/ml and incubated in ambient air for 24 hours prior to reading. Colony counts were performed periodically to confirm inocula. Quality control was performed every two weeks using a variety of ATCC QC organisms including; S. aureus 29213, E. faecalis 29212, E. coli 25922 and P. aeruginosa 27853. For all antimicrobials as well as PEP35, CLSI criteria were used.
One MS SA and ATCC reference strains were used as controls. All MICs were assessed using CLSI guidelines.

P. aeruginosa = test: Checkerboard assay (FIC index); type: cell-based, Pseudomonas aeruginosa; conditions: antibiotic combined with PEP35
Description: (§1) The checkerboard assays were carried out as described by Eliopoulos and Moellering (Chapter 9) in Antibiotic in Laboratory Medicine, Lorian Ed. 1996 as well as Bonapace et al. Diagnostic Microbiology and Infectious Diseases 2002; 44:363-366 and Bonapace et al. Diagnostic Microbiology and Infectious Diseases 2000; 38:43-50. In brief, checkerboard assays were performed in 96 well microtitre trays using an 8-by-8 well configuration. […] 96-well custom designed microtitre plates contained 100 ul/well of cation adjusted Mueller-Hinton broth (eg. for Enterobacteriaceae) with or without lysed horse blood (2-5% V/V) [eg. for S. pneumoniae] and were inoculated to achieve a final concentration of approximately 5×10^5 CFU/ml and incubated in ambient air for 24 hours prior to reading. Colony counts were performed periodically to confirm inocula. Quality control was performed every two weeks using a variety of ATCC QC organisms including; S. pneumoniae 49619, S. aureus 29213, E. faecalis 29212, E. coli 25922 and P. aeruginosa 27853. For all antimicrobials as well as PEP35, CLSI criteria was used.
(§2) The fractional inhibitory concentration index (FIC index) was used to interpret synergy, antagonism or additivity/indifference. FIC index=FIC of drug A+FIC of drug B where:
(§3) The FIC of drug A and drug B is calculated as follows, FIC drug A=MIC of drug A in combination/MIC of drug A alone and FIC of drug B=MIC of drug B in combination/MIC of drug B alone. Synergy is defined as FIC index ≦0.5, additivity/indifference FIC >0.5-4 and antagonism FIC index >4.
(§4) Antimicrobials used included PEP35, cefazolin, ceftriaxone, vancomycin, linezolid, tigecycline and daptomycin versus Gram-positive cocci and PEP35, gentamicin, levofloxacin, piperacillin/tazobactam, meropenem and colistin (Polymyxin E) versus Gram-negative bacilli. These agents were obtained as laboratory grade powders from their respective manufacturers. Stock solutions were prepared and dilutions made as described by the Clinical Laboratory Standards Institute (2005 CLSI).
(§5) Organisms included Gram-positive cocci (2 strains of each): Methicillin-susceptible Staphylococcus aureus (MSSA), community-associated (CA) and healthcare-associated (HA) methicillin-resistant Staphylococcus aureus (MRSA), vancomycin-intermediate Staphylococcus aureus (VISA), vancomycin-resistant Staphylococcus aureus (VRSA), methicillin-resistant Staphylococcus epidermidis (MRSE), Streptococcus pyogenes, Streptococcus agalactiae, Streptococcus pneumoniae, Enterococcus faecalis, Enterococcus faecium and vancomycin-resistant enterococcus (VRE). Gram-negative bacilli tested (2 strains of each) included: E. coli, Pseudomonas aeruginosa, Klebsiella pneumoniae, K. oxytoca, Enterobacter cloacae, P. mirabilis and Stenotrophomonas maltophilia. MIC testing, following two subcultures from frozen stock were determined by the CLSI 2005 approved broth microdilution method.

E. cloacae = test: Checkerboard assay (FIC index); type: cell-based, Enterobacter cloacae; conditions: antibiotic combined with PEP35
Description: as §1, §2, §3, §4, §5

K. oxytoca = test: Checkerboard assay (FIC index); type: cell-based, Klebsiella oxytoca; conditions: antibiotic combined with PEP35
Description: as §1, §2, §3, §4, §5

P. mirabilis = test: Checkerboard assay (FIC index); type: cell-based, Proteus mirabilis; conditions: antibiotic combined with PEP35
Description: as §1, §2, §3, §4, §5

K. pneumoniae = test: Checkerboard assay (FIC index); type: cell-based, Klebsiella pneumoniae; conditions: antibiotic combined with PEP35
Description: as §1, §2, §3, §4, §5

S. maltophilia = test: Checkerboard assay (FIC index); type: cell-based, Stenotrophomonas maltophilia; conditions: antibiotic combined with PEP35
Description: as §1, §2, §3, §4, §5

For `Cc1nnc(SCC2=C(C(=O)O)N3C(=O)[C@@H](NC(=O)Cn4cnnn4)[C@H]3SC2)s1` [Cefazolin], the MIC (E. coli; E. coli 69716, in µg/mL) was 2, the MIC (E. coli; E. coli 70752, in µg/mL) was 128 and the “Cefazolin (MIC)” value (E. coli; E. coli, antibiotic alone, two values in cell) was 2/2. For the same molecule, the MIC (E. coli; Escherichia coli, E. coli control, read-out: MIC) was 2 mg/L.
For `C[C@@H](O)[C@H]1C(=O)N2C(C(=O)O)=C(S[C@@H]3CN[C@H](C(=O)N(C)C)C3)[C@H](C)[C@H]12` [Meropenem], the “Avg ΣFIC (range)” value (P. aeruginosa; P. aeruginosa 70849) was 1.21 (1.03-1.5), the “Avg ΣFIC (range)” value (P. aeruginosa; P. aeruginosa 71841) was 1.10 (1.0-1.25) and the “Avg ΣFIC (range)” value (E. cloacae; E. cloacae 80194) was 1.32 (1.03-2.12). The “Avg ΣFIC (range)” value (E. cloacae; E. cloacae 83128) was 1.05 (0.75-1.25), the MIC (E. coli; E. coli 69716, in µg/mL) was 0.03 and the MIC (E. coli; E. coli 70752, in µg/mL) was 0.03. For the same molecule, the “Avg ΣFIC (range)” value (K. oxytoca; K. oxytoca 75316) was 1.1 (1.0-1.25), the “Avg ΣFIC (range)” value (K. oxytoca; K. oxytoca 76874) was 0.80 (0.53-1.12) and the “Avg ΣFIC (range)” value (P. mirabilis; P. mirabilis 80267) was >1*. For the same molecule, the “Avg ΣFIC (range)” value (P. mirabilis; P. mirabilis 81569) was >1*, the “Avg ΣFIC (range)” value (K. pneumoniae; K. pneumoniae 70508) was 1.19 (1.03-1.5) and the “Avg ΣFIC (range)” value (K. pneumoniae; K. pneumoniae 77081) was 1.21 (1.03-1.5). The “Avg ΣFIC (range)” value (S. maltophilia; S. maltophilia 73062) was 0.77 (0.5-1.03) and the “Avg ΣFIC (range)” value (S. maltophilia; S. maltophilia 77424) was 1.05 (0.75-1.25).
With “KKKKKLQLQLNLIKKKVQVSVVVVRRH (Reordered human peptide sequence) [Scrambled PEP35]” the MIC (E. coli; E. coli 69716, in µg/mL) was 8, the MIC (E. coli; E. coli 70752, in µg/mL) was 8 and the “activity (in words)” value (E. coli; vs E. coli) was “active”.
“LKQKIKHVVKLKVVVKLRSQLVKRKQN (listed as Mus sp.) [PEP35]” showed an MIC (E. coli; E. coli 69716, in µg/mL) of 128, an MIC (E. coli; E. coli 70752, in µg/mL) of 128 and an MIC (E. coli; E. coli control) of 64 mg/L. The “PEP35 (MIC)” value (E. coli; E. coli, peptide alone) was 64 mg/L.
With piperacillin/tazobactam the “Avg ΣFIC (range)” value (P. aeruginosa; P. aeruginosa 70849) was 0.92 (0.62-1.12), the “Avg ΣFIC (range)” value (P. aeruginosa; P. aeruginosa 71841) was 0.88 (0.56-1.12) and the “Avg ΣFIC (range)” value (E. cloacae; E. cloacae 80194) was 0.79 (0.5-1.06). For the same molecule, the “Avg ΣFIC (range)” value (E. cloacae; E. cloacae 83128) was 0.71 (0.37-1.06), the MIC (E. coli; E. coli 69716, in µg/mL) was 2 and the MIC (E. coli; E. coli 69716, listed as Piperacillin-Tazobactam, in µg/mL) was 4 and 2. For the same molecule, the MIC (E. coli; E. coli 70752) was 4/4, the MIC (E. coli; E. coli 70752, in µg/mL) was 8 and the “Avg ΣFIC (range)” value (K. oxytoca; K. oxytoca 75316) was 0.93 (0.62-1.12). The “Avg ΣFIC (range)” value (K. oxytoca; K. oxytoca 76874) was 0.83 (0.53-1.12), the “Avg ΣFIC (range)” value (P. mirabilis; P. mirabilis 80267) was >0.5* and the “Avg ΣFIC (range)” value (P. mirabilis; P. mirabilis 81569) was >0.5*. For the same molecule, the “Avg ΣFIC (range)” value (K. pneumoniae; K. pneumoniae 70508) was 0.93 (0.62-1.12), the “Avg ΣFIC (range)” value (K. pneumoniae; K. pneumoniae 77081) was 1.05 (0.75-1.25) and the “Avg ΣFIC (range)” value (S. maltophilia; S. maltophilia 73062) was 0.98 (0.62-1.25). The “Avg ΣFIC (range)” value (S. maltophilia; S. maltophilia 77424) was 1.04 (0.75-1.25).
